Measurements from patent publication US20130078317A1, “ZINC-CONTAINING COMPOSITIONS FOR THE TREATMENT OF DISEASES, ILLNESSES AND SYNDROMES ASSOCIATED WITH EXPOSURE TO PORE FORMING TOXINS” (priority 2009, published 2013).

Tests used:
[1] = target: T1, purified hemolysin from Carybdea alata (Alatina alata, UniProt Q9GNN8); test: Potassium efflux induced by purified hemolysin from Carybdea alata in isolated red blood cells; type: cell-based; details: 2% RBC; FIG. 4 legend
T1 sequence (Q9GNN8 31-463 limits assumed): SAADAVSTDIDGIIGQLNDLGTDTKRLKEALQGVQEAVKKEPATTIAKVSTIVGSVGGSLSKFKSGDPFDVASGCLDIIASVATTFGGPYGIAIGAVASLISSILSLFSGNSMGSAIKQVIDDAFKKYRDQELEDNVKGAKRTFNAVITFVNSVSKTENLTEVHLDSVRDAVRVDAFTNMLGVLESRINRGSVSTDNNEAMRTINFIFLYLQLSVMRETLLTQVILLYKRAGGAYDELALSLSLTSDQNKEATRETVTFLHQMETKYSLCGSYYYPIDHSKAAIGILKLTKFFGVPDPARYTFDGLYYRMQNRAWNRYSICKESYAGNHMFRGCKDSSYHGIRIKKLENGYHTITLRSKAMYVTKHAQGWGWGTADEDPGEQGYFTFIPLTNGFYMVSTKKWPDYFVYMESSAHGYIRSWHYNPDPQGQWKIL

Carybdea alata hemolysin = target: T2, Carybdea alata hemolysin (Alatina alata, UniProt Q9GNN8); test: Hemolysis induced by Carybdea alata hemolysin in 2% RBC; type: cell-based; details: 5 mM zinc gluconate
T2 sequence (Q9GNN8 31-463 limits assumed): T1 sequence (Q9GNN8 31-463 limits assumed)

## zinc gluconate
[1]
  potassium efflux induced by purified hemolysin from Carybdea alata: inhibits
Carybdea alata hemolysin
  hemolysis induced by Carybdea alata hemolysin: substantially inhibited
